# Target: T1, eIF2Bα (Homo sapiens, UniProt Q14232)
# T1 construct: made in house; host or cells: E. coli BL21(DE3)
# T1 sequence (Q14232 1-305): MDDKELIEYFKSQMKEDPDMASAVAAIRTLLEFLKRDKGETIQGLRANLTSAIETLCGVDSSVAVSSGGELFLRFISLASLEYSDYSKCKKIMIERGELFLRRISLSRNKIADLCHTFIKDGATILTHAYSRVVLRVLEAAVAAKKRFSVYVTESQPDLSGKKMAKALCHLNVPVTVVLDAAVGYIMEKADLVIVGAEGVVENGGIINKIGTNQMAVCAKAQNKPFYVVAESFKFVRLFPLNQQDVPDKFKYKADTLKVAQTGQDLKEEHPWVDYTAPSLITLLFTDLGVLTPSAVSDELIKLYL
# Assay: MIDAS (mass spectrometry integrated with equilibrium dialysis) metabolite binding screen
# Settings: MIDAS metabolite binding screen with eIF2Bα; sheet "eIF2Ba"
# Experimental: Metabolites were combined into four defined screening pools. […] To the reverse side, 300 μL of 50 μM per metabolite pool was aliquoted and sealed (metabolite chamber). Loaded dialysis plates were placed in the dark at 4 °C on a rotating shaker (120 rpm) and incubated for 40 h. Post-dialysis, metabolites were isolated from each chamber by cold methanol extraction. Each sample was analyzed in technical triplicate by FIA-MS on a SCIEX X500R QTOF MS with interspersed blanks injections. The input metabolite pools were assayed at the beginning, middle, and end of each MS method batch for QC and normalization.
# MIDAS FIA-MS spectra were processed in SCIEX OS 1.6 software to determine metabolite abundances by integrating the mean area under the curve for each extracted ion chromatogram. For each dialysis replicate, log2(fold change) for each metabolite was calculated as the difference between the log2 abundance in the protein chamber and metabolite chamber. For each technical triplicate, up to one outlier was removed using a z-score cutoff of five (<0.1% of observations). The corrected technical replicates were collapsed to one mean fold-change summary per protein-metabolite pair. To remove fold-change variation that was not specific to a given metabolite-protein pair, the first three principal components of the total screening dataset were removed on a per metabolite pool basis by subtracting the projection of the first 3 principal components, creating log2(corrected fold change). Protein-metabolite z-scores were determined by comparing the target protein-metabolite log2(corrected fold change) to a no-signal model for that metabolite using measures of the central tendency (median) and standard deviation (extrapolated from the 25–75% quantiles), which are robust to the signals in the tails of a metabolite’s fold-change distribution. Z-scores were false-discovery rate controlled using Storey’s q-value (qvalue, R) and protein-metabolite interactions with q-values < 0.1 were considered significant.
row,SMILES,log2(corrected fold change)
1,CC(=O)N[C@H]1[C@H]([C@H](O)[C@H](O)CO)O[C@](OP(=O)(O)OC[C@H]2O[C@@H](n3ccc(N)nc3=O)[C@H](O)[C@@H]2O)(C(=O)O)C[C@@H]1O,-0.01546
2,CC(=O)NC1C(OP(=O)(O)OP(=O)(O)OCC2OC(n3ccc(=O)[nH]c3=O)C(O)C2O)OC(CO)C(O)C1O (stereo not shown),-0.0409
3,Nc1c(O)cccc1C(=O)CC(N)C(=O)O (racemic) [3-Hydroxy-DL-kynurenine],0.08675
4,NC(CP(=O)(O)O)C(=O)O (racemic) [DL-2-Amino-3-phosphonopropionic acid],-0.05707
5,"O=C(O)C(O)c1ccc(O)c(O)c1 (racemic) [DL-3,4-Dihydroxymandelic acid]",-0.05412
6,NC(CCS)C(=O)O (racemic) [DL-Homocysteine],-0.005857
7,O=C(O)CC(C(=O)O)C(O)C(=O)O (racemic) [DL-Isocitric acid],-0.01609
8,Cn1cnc(CCN)c1 [1-Methylhistamine],-0.03686
9,C[n+]1cccc(C(N)=O)c1 [1-Methylnicotinamide],0.02855
10,"O=C(O)C(O)CO (stereo not shown) [2,3-Dihydroxypropanoic acid]",0.03679
11,"OCC(O)COC1OC(CO)C(O)C(O)C1O (stereo not shown) [2,3-Dihydroxypropyl hexopyranoside]",0.03531
12,"O=C(O)C(COP(=O)(O)O)OP(=O)(O)O [2,3-Diphospho-D-glyceric acid]",0.003153
13,"O=C(O)c1cc(O)ccc1O [2,5-Dihydroxybenzoic acid]",0.05271
14,O=C(O)C[C@H](O)[C@H](O)CO [2-Deoxy-D-ribonic acid],-0.009975
15,Nc1ncnc2c1ncn2C1CC(O)C(CO)O1 (stereo not shown) [2-Deoxyadenosine],0.4061
16,Nc1ccn([C@H]2C[C@H](O)[C@@H](COP(=O)(O)OP(=O)(O)O)O2)c(=O)n1 [2-Deoxycytidine 5-diphosphate],0.01712

row,SMILES,log2(corrected fold change)
1,Nc1nc2c(ncn2[C@H]2C[C@H](O)[C@@H](COP(=O)(O)OP(=O)(O)O)O2)c(=O)[nH]1 [2-Deoxyguanosine 5-diphosphate],-0.09804
2,Nc1nc2c(ncn2[C@H]2C[C@H](O)[C@@H](COP(=O)(O)OP(=O)(O)OP(=O)(O)O)O2)c(=O)[nH]1 [2-Deoxyguanosine 5-triphosphate],0.05437
3,O=c1ccn([C@H]2C[C@H](O)[C@@H](CO)O2)c(=O)[nH]1 [2-Deoxyuridine],0.04824
4,CCC(C)C(O)C(=O)O (stereo not shown) [2-Hydroxy-3-methylpentanoic acid],-0.0302
5,CC(C)CC(O)C(=O)O (stereo not shown) [2-Hydroxyisocaproic acid],-0.0302
6,O=C(O)CCCC(=O)C(=O)O [2-Oxoadipic acid],-0.03769
7,O=C(O)COP(=O)(O)O [2-Phosphoglycolic acid],0.0426
8,"CC(C)=CC(=O)O [3,3-Dimethylacrylic acid]",0.01899
9,NC1CCCNC1=O (stereo not shown) [3-Aminopiperidin-2-one],0.003124
10,O=C(O)c1ccoc1 [3-Furoic acid],-0.01812
11,CC(O)(CC(=O)O)CC(=O)O [3-Hydroxy-3-methylglutaric acid],0.0406
12,CC(O)(CC(=O)O)CC(=O)SCCNC(=O)CCNC(=O)[C@H](O)C(C)(C)COP(=O)(O)OP(=O)(O)OC[C@H]1O[C@@H](n2cnc3c(N)ncnc32)[C@H](O)[C@@H]1OP(=O)(O)O (stereo partly shown) [3-Hydroxy-3-methylglutaryl coenzyme A],0.00866
13,Nc1c(O)cccc1C(=O)O [3-Hydroxyanthranilic acid],-0.02136
14,CC(O)CC(=O)SCCNC(=O)CCNC(=O)[C@H](O)C(C)(C)COP(=O)(O)OP(=O)(O)OC[C@H]1O[C@@H](n2cnc3c(N)ncnc32)[C@H](O)[C@@H]1OP(=O)(O)O (stereo partly shown) [3-Hydroxybutyryl coenzyme A],0.00715
15,O=C(O)CCO [3-Hydroxypropionic acid],-0.02892
16,CC(=CC(=O)O)CC(=O)O [3-Methylglutaconic acid],-0.01192

# Same assay, conditions: MIDAS screen, sheet eIF2Ba; metabolites screened in pools 1-4; p-value and q-value given
row,SMILES,log2(corrected fold change)
1,"OCC(O)c1ccc(O)c(O)c1 (racemic) [DL-3,4-Dihydroxyphenyl glycol]",-0.07769
2,CC(CNC(N)=O)C(=O)O (racemic) [DL-3-Ureidoisobutyric acid],0.1976
3,COc1cc(C(O)C(=O)O)ccc1O (racemic) [DL-4-Hydroxy-3-methoxymandelic acid],-0.08249
4,NCC(O)CCC(N)C(=O)O (racemic) [DL-5-Hydroxylysine],-0.09937
5,N[C@H](CCSSCC[C@@H](N)C(=O)O)C(=O)O (racemic) [DL-Homocystine],0.09463
6,O=C(O)C(O)c1ccccc1 (racemic) [DL-Mandelic acid],0.3212
7,NC(=O)CCC(N)C(=O)O (stereo in doubt) [D-Glutamine],0.1976
8,"NCCCN [1,3-Diaminopropane]",0.2387
9,Cn1cnc(C[C@H](N)C(=O)O)c1 [1-Methyl-L-histidine],-0.1945
10,"O=C(O)c1cccnc1C(=O)O [2,3-Pyridinedicarboxylic acid]",0.05596
11,"O=Cc1cc(O)ccc1O [2,5-Dihydroxybenzaldehyde]",0.1295
12,CCC(CO)C(=O)O (stereo not shown) [2-(Hydroxymethyl)butanoic acid],0.09429
13,COc1cccc(C(=O)O)c1N [2-Amino-3-methoxybenzoic acid],-0.1539
14,NC(CCCC(=O)O)C(=O)O (stereo not shown) [2-Aminoadipic acid],-0.07731
15,Nc1ccn([C@H]2C[C@H](O)[C@@H](COP(=O)(O)O)O2)c(=O)n1 [2-Deoxy-5-cytidylic acid],0.04298
16,O=CC[C@H](O)[C@H](O)CO [2-Deoxy-D-ribose],-0.2249
17,Nc1ncnc2c1ncn2[C@H]1C[C@H](O)[C@@H](COP(=O)(O)OP(=O)(O)OP(=O)(O)O)O1 [2-Deoxyadenosine 5-triphosphate],-0.07151
18,Nc1ccn([C@H]2C[C@H](O)[C@@H](CO)O2)c(=O)n1 [2-Deoxycytidine],0.344

row,SMILES,log2(corrected fold change)
1,Nc1nc2c(ncn2[C@H]2C[C@H](O)[C@@H](CO)O2)c(=O)[nH]1 [2-Deoxyguanosine],-0.1329
2,O=c1[nH]cnc2c1ncn2[C@H]1C[C@H](O)[C@@H](CO)O1 [2-Deoxyinosine],0.06917
3,O=P(O)(O)OC[C@H]1O[C@@H](O)C[C@@H]1O [2-Deoxyribose-5-phosphate],1.609
4,O=c1ccn([C@H]2C[C@H](O)[C@@H](COP(=O)(O)O)O2)c(=O)[nH]1 [2-Deoxyuridine 5-monophosphate],0.2736
5,CCC(O)C(=O)O (stereo not shown) [2-Hydroxybutanoic acid],0.07137
6,O=C(O)Cc1ccccc1O [2-Hydroxyphenylacetic acid],-0.07366
7,CCC(=O)C(=O)O [2-Ketobutyric acid],-0.05529
8,CC(CCC(=O)O)C(=O)O (stereo not shown) [2-Methylglutaric acid],-0.09665
9,"N[C@@H](Cc1ccc(O)c(O)c1)C(=O)O [3,4-Dihydroxy-L-phenylalanine]",0.5098
10,"O=C(O)Cc1ccc(O)c(O)c1 [3,4-Dihydroxyphenylacetic acid]",0.1411
11,"N[C@@H](Cc1cc(I)c(O)c(I)c1)C(=O)O [3,5-Diiodo-L-tyrosine]",0.05791
12,CC(CN)C(=O)O (stereo not shown) [3-Aminoisobutyric acid],-0.1018
13,CC(O)CC(=O)O (stereo not shown) [3-Hydroxybutyric acid],0.07137
14,N[C@@H](Cc1ccc(O)c(I)c1)C(=O)O [3-Iodo-L-tyrosine],0.6259
15,COc1cc(CCN)ccc1O [3-Methoxytyramine],0.126
16,CCC(C)C(=O)C(=O)O (stereo not shown) [3-Methyl-2-oxovaleric acid],-0.05419
17,CC(CC(=O)O)CC(=O)O [3-Methylglutaric acid],-0.09665

# Reference: PMC8187479, “Sugar phosphate activation of the stress sensor eIF2B” (Nature Communications, 2021)
